# In paper PMC8745237, “Multiple Antimicrobial Effects of Hybrid Peptides Synthesized Based on the Sequence of Ribosomal S1 Protein from Staphylococcus aureus” (International Journal of Molecular Sciences, 2022):
# Legend:
# S. aureus (209P strain) = assay: Preliminary testing of antimicrobial properties on agar, S. aureus; assay type: cell-based, Staphylococcus aureus
# Source text: (§1) Table S4. Results of preliminary testing the antimicrobial properties of the VVVHINGGKF (V10F), GVVVRLANFG (G10G),
# VQGLVHISEI (V10I), QQVNVKILGI (Q10I) peptides against S. aureus, MRSA, B. cereus, and E. coli bacteria cells on agar.
# MRSA (ATCC 43300 strain) = assay: Preliminary testing of antimicrobial properties on agar, MRSA ATCC 43300; assay type: cell-based, Methicillin-resistant Staphylococcus aureus
# Source text: as §1
# (§2) VQGLVHISEI (V10I), QQVNVKILGI (Q10I) peptides against S. aureus, MRSA, B. cereus, and E. coli bacteria cells on agar. […]
# MRSA (ATCC 43300 Non-AMP Non-AMP Non-AMP Non-AMP Non-AMP
# MRSA (SA 180-F strain) = assay: Preliminary testing of antimicrobial properties on agar, MRSA SA 180-F; assay type: cell-based, Methicillin-resistant Staphylococcus aureus
# Source text: as §1, §2
# E. coli (K12 strain) = assay: Preliminary testing of antimicrobial properties on agar, E. coli; assay type: cell-based, Escherichia coli
# Source text: as §1, §2
# [1] = tested on: B. cereus (IP-5812 strain); assay: Preliminary testing of antimicrobial properties on agar, B. cereus; assay type: cell-based, Bacillus cereus
# Source text: as §1, §2
sequence,measurement,setting,value
GVVVRLANFG [G10G],antimicrobial properties on agar,S. aureus (209P strain); peptide 1 µM,Non-AMP
same,antimicrobial properties on agar,S. aureus (209P strain); peptide 10 µM,Non-AMP
same,antimicrobial properties on agar,S. aureus (209P strain); peptide 100 µM,Non-AMP
same,antimicrobial properties on agar,S. aureus (209P strain); peptide 1000 µM,Non-AMP
same,antimicrobial properties on agar,S. aureus (209P strain); peptide 10000 µM,AMP
same,antimicrobial properties on agar,MRSA (ATCC 43300 strain); peptide 1 µM,Non-AMP
same,antimicrobial properties on agar,MRSA (ATCC 43300 strain); peptide 10 µM,Non-AMP
same,antimicrobial properties on agar,MRSA (ATCC 43300 strain); peptide 100 µM,Non-AMP
same,antimicrobial properties on agar,MRSA (ATCC 43300 strain); peptide 1000 µM,Non-AMP
same,antimicrobial properties on agar,MRSA (ATCC 43300 strain); peptide 10000 µM,Non-AMP
same,antimicrobial properties on agar,MRSA (SA 180-F strain); peptide 1 µM,Non-AMP
same,antimicrobial properties on agar,MRSA (SA 180-F strain); peptide 10 µM,Non-AMP
same,antimicrobial properties on agar,MRSA (SA 180-F strain); peptide 100 µM,Non-AMP
same,antimicrobial properties on agar,MRSA (SA 180-F strain); peptide 1000 µM,Non-AMP
same,antimicrobial properties on agar,MRSA (SA 180-F strain); peptide 10000 µM,Non-AMP
same,antimicrobial properties on agar,E. coli (K12 strain); peptide 1 µM,Non-AMP
same,antimicrobial properties on agar,E. coli (K12 strain); peptide 10 µM,Non-AMP
same,antimicrobial properties on agar,E. coli (K12 strain); peptide 100 µM,Non-AMP
same,antimicrobial properties on agar,E. coli (K12 strain); peptide 1000 µM,Non-AMP
same,antimicrobial properties on agar,E. coli (K12 strain); peptide 10000 µM,Non-AMP
same,antimicrobial properties on agar,[1]; peptide 1 µM,Non-AMP
same,antimicrobial properties on agar,[1]; peptide 10 µM,Non-AMP
same,antimicrobial properties on agar,[1]; peptide 100 µM,Non-AMP
same,antimicrobial properties on agar,[1]; peptide 1000 µM,Non-AMP
same,antimicrobial properties on agar,[1]; peptide 10000 µM,Non-AMP
